Measurements: patent publication US20170050957A1, “4-AMINO-6-(HETEROCYCLIC)PICOLINATES AND 6-AMINO-2-(HETEROCYCLIC)PYRIMIDINE-4-CARBOXYLATES AND THEIR USE AS HERBICIDES” (Dow AgroSciences LLC, priority 2013, published 2017)
Like-named read-outs stand apart in the source and are kept apart here.

Columns and labels:
[1] = test system: Key Broadleaf Weed and Crop Species; experiment: Post-emergent Test II herbicidal activity (Table 15); type: in vivo; settings: post-emergence, 336 h, 14 d; for pest or weed control at 35 g/ha: 35 g ai/ha; for pest or weed control at 70 g/ha: 70 g ai/ha; for pest or weed control at 140 g/ha: 140 g ai/ha
In short: (§1)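 Plants at first-second true leaf stage, grown 7-21 d in greenhouse (~15 h photoperiod, 23-29 °C day), were track-sprayed at 187 L/ha with compound in acetone/DMSO/water/isopropanol/crop oil/Triton X-155 at a high rate plus 1/2× to 1/16× dilutions. Injury scored visually after 14 d versus untreated plants, 0 (none) to 100% (complete kill).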

[2] = test system: Key Grass and Sedge Weeds as well as Grass Crops; experiment: Post-emergent Test II herbicidal activity (Table 16); type: in vivo; settings: post-emergence, 336 h, 14 days after application; for pest or weed control at 35 g/ha: 35 g ai/ha; for pest or weed control at 70 g/ha: 70 g ai/ha; for pest or weed control at 140 g/ha: 140 g ai/ha
In short: as §1

[3] = Abutilon theophrasti, velvetleaf (Abutilon theophrasti), read-out: Visual Growth Reduction (%) 14 Days After Application, ABUTH
[4] = Amaranthus retroflexus, redroot pigweed (Amaranthus retroflexus), read-out: Visual Growth Reduction (%) 14 Days After Application, AMARE
[5] = Brassica napus, oilseed rape, canola (Brassica napus), read-out: Visual Growth Reduction (%) 14 Days After Application, BRSNN
[6] = Chenopodium album, lambsquarters (Chenopodium album), read-out: Visual Growth Reduction (%) 14 Days After Application, CHEAL
[7] = Euphorbia heterophylla, wild poinsettia (Euphorbia heterophylla), read-out: Visual Growth Reduction (%) 14 Days After Application, EPHHL
[8] = Helianthus annuus, sunflower (Helianthus annuus), read-out: Visual Growth Reduction (%) 14 Days After Application, HELAN
[9] = Cyperus esculentus, yellow nutsedge (Cyperus esculentus), read-out: Visual Growth Reduction (%) 14 Days After Application CYPES
[10] = Echinochloa crus-galli, barnyardgrass (Echinochloa crus-galli), read-out: Visual Growth Reduction (%) 14 Days After Application ECHCG
[11] = Oryza sativa, rice (Oryza sativa), read-out: Visual Growth Reduction (%) 14 Days After Application ORYSA
[12] = Setaria faberi, giant foxtail (Setaria faberi), read-out: Visual Growth Reduction (%) 14 Days After Application SETFA
[13] = Triticum aestivum, wheat, spring (Triticum aestivum), read-out: Visual Growth Reduction (%) 14 Days After Application TRZAS
[14] = Zea mays, maize, corn (Zea mays), read-out: Visual Growth Reduction (%) 14 Days After Application ZEAMX

## COc1c(N)nc(-c2ccc3ccsc3c2)nc1C(=O)O [Compound 3.21]
other
  melting point: 134 to 136 °C
[1]; [3]
  pest or weed control at 35 g/ha: 0 to 29%
  pest or weed control at 70 g/ha: 30 to 44%
  pest or weed control at 140 g/ha: 45 to 59%
[1]; [4]
  pest or weed control at 35 g/ha: 95 to 100%
  pest or weed control at 70 g/ha: 95 to 100%
  pest or weed control at 140 g/ha: 95 to 100%
[1]; [5]
  pest or weed control at 35 g/ha: 75 to 84%
  pest or weed control at 70 g/ha: 85 to 94%
  pest or weed control at 140 g/ha: 95 to 100%
[1]; [6]
  pest or weed control at 35 g/ha: 85 to 94%
  pest or weed control at 70 g/ha: 85 to 94%
  pest or weed control at 140 g/ha: 95 to 100%
[1]; [7]
  pest or weed control at 35 g/ha: 75 to 84%
  pest or weed control at 70 g/ha: 85 to 94%
  pest or weed control at 140 g/ha: 95 to 100%
[1]; [8]
  pest or weed control at 35 g/ha: 60 to 74%
  pest or weed control at 70 g/ha: 60 to 74%
  pest or weed control at 140 g/ha: 75 to 84%
[2]; [9]
  pest or weed control at 35 g/ha: 0 to 29%
  pest or weed control at 70 g/ha: 0 to 29%
  pest or weed control at 140 g/ha: 0 to 29%
[2]; [10]
  pest or weed control at 35 g/ha: 75 to 84%
  pest or weed control at 70 g/ha: 85 to 94%
  pest or weed control at 140 g/ha: 85 to 94%
[2]; [11]
  pest or weed control at 35 g/ha: 0 to 29%
  pest or weed control at 70 g/ha: 30 to 44%
  pest or weed control at 140 g/ha: 30 to 44%
[2]; [12]
  pest or weed control at 35 g/ha: 0 to 29%
  pest or weed control at 70 g/ha: 30 to 44%
  pest or weed control at 140 g/ha: 60 to 74%
[2]; [13]
  pest or weed control at 35 g/ha: 30 to 44%
  pest or weed control at 70 g/ha: 30 to 44%
  pest or weed control at 140 g/ha: 45 to 59%
[2]; [14]
  pest or weed control at 35 g/ha: 30 to 44%
  pest or weed control at 70 g/ha: 60 to 74%
  pest or weed control at 140 g/ha: 75 to 84%
